Test results as given in patent US6541463B1, “Inhibitors of type 5 and type 3 17β-hydroxysteroid dehydrogenase and methods for their use” (Endorecherche, Inc., priority 1998, dated 2003).
Like-named read-outs stand apart in the source and are kept apart here.

Tested on: Shionogi mouse mammary carcinoma cells
Experiment: Antiandrogenic activity: inhibition of DHT-induced proliferation of Shionogi cells
Assay type: cell-based
Method in brief: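 Androgen-sensitive Shionogi mouse mammary carcinoma cells, 20 000/well, were grown 10–12 days in charcoal-stripped serum with increasing agent concentrations in triplicate, with medium changed every 3–4 days. Cell number was counted directly, and ED50 was derived by least-square regression.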

[1] = Table 4′, DHT-induced proliferation, E^−6 (10^−6 M)
[2] = Table 4′, DHT-induced proliferation, E^−7
[3] = Mus musculus, read-out: Antiandrogenic Activity Shionogi, DHT [IC50]

C[C@]12CCC3c4cc([N+](=O)[O-])c(O)cc4CCC3C1CC[C@@]21CCCC(=O)O1 (stereo partly drawn) [EM-1124, 2-Nitro-1,3,5(10)-estraetriene-3-ol-17(R)-spiro-2′-(6′-oxo)tetrahydropyran]
Antiandrogenic Activity Shionogi, DHT E^−6 [1]: −65%
Antiandrogenic Activity Shionogi, DHT E^−7 [2]: 0%

COc1c(Br)cc2c(c1Br)CCC1C2CCC2(C)C1CCC21CCC(C)(C)C(=O)O1 (stereo not drawn) [EM-1385-CS]
Antiandrogenic Activity Shionogi, DHT E^−6 [1]: −61%
Antiandrogenic Activity Shionogi, DHT E^−7 [2]: 0%

COc1ccc2c(c1)C(=O)CC1C2CC[C@@]2(C)C1CC[C@@]21CCC(C)(C)C(=O)O1 (stereo partly drawn) [EM-1394]
Antiandrogenic Activity Shionogi, DHT E^−6 [1]: −23%
Antiandrogenic Activity Shionogi, DHT E^−7 [2]: 0%

CC12C=CC(=O)C=C1C=CC1C2CCC2(C)C(=O)C3(CCCCC3)CC12 (stereo not drawn) [CS-204]
Antiandrogenic Activity Shionogi, DHT E^−6 (with DHT, E^−6): −13
Antiandrogenic Activity Shionogi, DHT E^−7 (with DHT, E^−7): −25

CC(C)C[C@@H]1CC2C3C=CC4=CC(=O)CC[C@]4(C)C3CC[C@]2(C)C1=O (stereo partly drawn) [EM-1273-CS]
Antiandrogenic Activity Shionogi, DHT E^−6 (with DHT, E^−6): −43
Antiandrogenic Activity Shionogi, DHT E^−7 (with DHT, E^−7): 9

CC1CCC2(CCC3C4CCc5ccccc5C4CCC32C)OC1=O (stereo not drawn) [EM-1025]
Antiandrogenic Activity Shionogi, DHT E^−6 [1]: −25%
Antiandrogenic Activity Shionogi, DHT E^−7 [2]: −14%

CC1CC(=O)OC2(CCC3C4CCc5cc(O)ccc5C4CCC32C)C1 [PB-132-142, 3-Hydroxy-1,3,5(10)-estratrien-17(R)-spiro-2′-(4′-methyl-6′-oxo)tetrahydropyran]
Antiandrogenic Activity Shionogi, DHT E^−6 [1]: −13%
Antiandrogenic Activity Shionogi, DHT E^−7 [2]: 0%

CC1(C)CCC2(CCC3C4CCc5c(cc(Cl)c(O)c5Cl)C4CCC32C)OC1=O (stereo not drawn) [EM-1391-CS]
Antiandrogenic Activity Shionogi, DHT E^−6 [1]: −19%
Antiandrogenic Activity Shionogi, DHT E^−7 [2]: 0%

CCOc1ccc2c(c1)CCC1C2CC[C@@]2(C)C1CC[C@@]21CCC(C)(C)C(=O)O1 (stereo partly drawn) [EM-1369, 3-Ethoxy-1,3,5(10)-estratrien-17(R)-spiro-2′-(5′,5′-dimethyl-6′-oxo)-tetrahydropyran]
Antiandrogenic Activity Shionogi, DHT E^−6 [1]: −24%
Antiandrogenic Activity Shionogi, DHT E^−7 [2]: 0%

C[C@]12CCC3c4ccc(O)cc4CCC3C1CC[C@@]21CCCC(=O)O1 (stereo partly drawn) [EM-919, 1,3,5(10)-estratrien-3-ol-17(R)-spiro-2′(6′-oxo)tetrahydropyran]
IC50 (Mus musculus, Table 4′, bracketed values, read-out: Antiandrogenic Activity Shionogi, DHT [IC50 (nM)]): 609 nM
Antiandrogenic Activity Shionogi, DHT E^−6 [1]: −95%
Antiandrogenic Activity Shionogi, DHT E^−7 [2]: +38%

CCC[C@]1(F)CC2C3C=CC4=CC(=O)CC[C@]4(C)C3CC[C@]2(C)C1=O (stereo partly drawn) [EM-1183]
Antiandrogenic Activity Shionogi, DHT E^−6 (with DHT, E^−6): −51
Antiandrogenic Activity Shionogi, DHT E^−7 (with DHT, E^−7): 0

COC(=O)c1cc2c(cc1O)CCC1C2CCC2(C)C1CCC21CCC(C)(C)C(=O)O1 (stereo not drawn) [EM-01662]
Antiandrogenic Activity Shionogi, DHT E^−6 [1]: −51%
Antiandrogenic Activity Shionogi, DHT E^−7 [2]: −11%

COCCOc1ccc2c(c1)C(=O)CC1C2CCC2(C)C1CCC21CCC(C)(C)C(=O)O1 (stereo not drawn) [EM-1408-CS]
Antiandrogenic Activity Shionogi, DHT E^−6 [1]: −94%
Antiandrogenic Activity Shionogi, DHT E^−7 [2]: −19%

CC1(C)CCC2(CCC3C4CCc5c(cc(Cl)c(OS(C)(=O)=O)c5Cl)C4CCC32C)OC1=O (stereo not drawn) [EM-1392-CS]
Antiandrogenic Activity Shionogi, DHT E^−6 [1]: −75%
Antiandrogenic Activity Shionogi, DHT E^−7 [2]: 0%

CC1(C)CC[C@@]2(CCC3C4CCc5cc(F)ccc5C4CC[C@@]32C)OC1=O (stereo partly drawn) [EM-1157-CS]
Antiandrogenic Activity Shionogi, DHT E^−6 [1]: −19%
Antiandrogenic Activity Shionogi, DHT E^−7 [2]: 0%

CCCCN(C)C(=O)[C@@]1(OC(C)=O)CCC2C3C=C(C)C4=CC(=O)CC[C@]4(C)C3CC[C@@]21C (stereo partly drawn) [EM-1165]
Antiandrogenic Activity Shionogi, DHT (DHT, E^−6): −102
Antiandrogenic Activity Shionogi, DHT (DHT, E^−7): −14
IC50 [3]: 232 nM

CC(=O)[C@@]1(OC(=O)CCCCF)CCC2C3C=C(C)C4=CC(=O)CC[C@]4(C)C3CC[C@@]21C (stereo partly drawn) [EM-1195-CS]
Antiandrogenic Activity Shionogi, DHT (DHT, E^−6): −110
Antiandrogenic Activity Shionogi, DHT (DHT, E^−7): −105

CSCCOc1ccc2c(c1)CCC1C2CCC2(C)C1CCC21CCCC(=O)O1 [CS-242, 3-Methylthioethyloxy-1,3,5(10)-estratrien-17(R)-spiro-2′-(6′-oxo) Tetrahydropyran]
Antiandrogenic Activity Shionogi, DHT E^−6 [1]: −66%
Antiandrogenic Activity Shionogi, DHT E^−7 [2]: 9%

CC(=O)O[C@]1(C)C(=O)CCC2C3C=C(C)C4=CC(=O)C=C[C@]4(C)C3CC[C@@]21C (stereo partly drawn) [CS-237]
IC50 (Mus musculus, with DHT, value in square brackets on second line, read-out: Antiandrogenic Activity Shionogi DHT [IC50 (nM)]): 95 nM
Antiandrogenic Activity Shionogi, DHT E^−6 (with DHT, E^−6): −106
Antiandrogenic Activity Shionogi, DHT E^−7 (with DHT, E^−7): −51

CN(C)C(=O)c1ccc2c(c1)CCC1C2CCC2(C)C1CCC21CCC(C)(C)C(=O)O1 (stereo not drawn) [EM-1403]
inhibition at 1 µM (Mus musculus, 10^−6 M inhibitor, negative number = stimulation reduced, read-out: percentage of inhibition of DHT-induced proliferation of Shionogi cells): 54%
Antiandrogenic Activity Shionogi, DHT E^−6 [1]: −54%
Antiandrogenic Activity Shionogi, DHT E^−7 [2]: 0%

COCCOc1cc2c(cc1Cl)C1CCC3(C)C(CCC34CCC(C)(C)C(=O)O4)C1CC2 (stereo not drawn) [EM-1371-CS]
Antiandrogenic Activity Shionogi, DHT E^−6 [1]: −76%
Antiandrogenic Activity Shionogi, DHT E^−7 [2]: 0%

COCCOc1cc2c(cc1C(F)(F)F)[C@H]1CC[C@@]3(C)[C@@H](CC[C@@]34CCC(C)(C)C(=O)O4)[C@@H]1CC2 [EM-1438, 3-(2′-Methoxyethoxy)-2-trifluoromethyl-1,3,5(10)-estratrien-17(R)-spiro-2′-(5′,5′-dimethyl-6′-oxo)tetrahydropyran]
Antiandrogenic Activity Shionogi, DHT E^−6 [1]: −53%
Antiandrogenic Activity Shionogi, DHT E^−7 [2]: 0%

COCCOc1cc2c(cc1C(=O)OC)C1CC[C@@]3(C)C(CC[C@@]34CCC(C)(C)C(=O)O4)C1CC2 (stereo partly drawn) [EM-1402-CS, 2-Carbomethoxy-3-(2″-methoxyethyloxy)-1,3,5(10)-estratrien 17(R)-spiro-2′-(5′,5′-dimethyl-6′-oxo)tetrahydropyran]
Antiandrogenic Activity Shionogi, DHT E^−6 [1]: −87%
Antiandrogenic Activity Shionogi, DHT E^−7 [2]: −13%

CC1(C)CCC2(CCC3C4CCc5ccccc5C4CCC32C)OC1=O (stereo not drawn) [CS-224]
Antiandrogenic Activity Shionogi, DHT E^−6 [1]: −11%
Antiandrogenic Activity Shionogi, DHT E^−7 [2]: 23%

CC12CCC3c4ccc(O)cc4CCC3C1CCC21CC=CC(=O)O1 [PB-132-140, 3-hydroxy-1,3,5(10)-estratrien-17(R)-spiro-2′-(4′,5′-dihydro-6′-oxo)pyran]
Antiandrogenic Activity Shionogi, DHT E^−6 [1]: 0%
Antiandrogenic Activity Shionogi, DHT E^−7 [2]: 16%

CN1C(=O)C=C[C@]2(C)C3CC[C@@]4(C)C(CC[C@@]45CCCC(=O)O5)C3CCC12 (stereo partly drawn) [EM-1122-CS]
IC50 (Mus musculus, Table 5, bracketed value, read-out: Antiandrogenic Activity Shlonogl, DHT [IC50 (nM)]): 447 nM
Antiandrogenic Activity Shlonogl, DHT E^−6 (Table 5, DHT, E^−6): −74%
Antiandrogenic Activity Shlonogl, DHT E^−7 (Table 5, DHT, E^−7): −14%

CCCC(=O)OC1(C(C)=O)CCC2C3C=C(C)C4=CC(=O)CC(C)C4(C)C3CCC21C (stereo not drawn) [CS-245]
Antiandrogenic Activity Shionogi, DHT (DHT, E^−6): −109
Antiandrogenic Activity Shionogi, DHT (DHT, E^−7): −106
IC50 [3]: 12 nM

CC1(C)CCC2(CCC3C4CCc5cc(OCCN6CCCCC6)ccc5C4CCC32C)OC1=O [EM-1390-CS, 3-(N-piperidyl-ethyl)-1,3,5(10)-estratrien-17(R)-spiro-2′-(5′,5′-dimethyl-6′-oxo)-tetrahydropyran]
Antiandrogenic Activity Shionogi, DHT E^−6 [1]: −119%
Antiandrogenic Activity Shionogi, DHT E^−7 [2]: −36%

COc1ccc2c(c1)C(=O)CC1C3CCC4(CCC(C)(C)C(=O)O4)C3(C)CCC21O (stereo not drawn) [EM-1386]
Antiandrogenic Activity Shionogi, DHT E^−6 [1]: −27%
Antiandrogenic Activity Shionogi, DHT E^−7 [2]: 0%

C[C@]12CCC(=O)C=C1C=C[C@@H]1[C@@H]2CC[C@]2(C)C(=O)C3(CC4CC4C3)C[C@@H]12 (stereo partly drawn) [EM-1299, 4,6-Androstadien-3,17-dione-16-spirobicyclo[3′.1′.0′]-hexane]
Antiandrogenic Activity Shionogi, DHT E^−6 (with DHT, E^−6): −27
Antiandrogenic Activity Shionogi, DHT E^−7 (with DHT, E^−7): 0
